Experimental findings from patent US11452710B1, “Micronutrient and plant extract composition and method of improving bone health” (priority 2022, dated 2022) are described below.

The subject of the assay is alkaline phosphatase (ALP). The following applies: 0.1-5 μg/ml, 48 h at 37° C., n=4; compared to the control and to the most stimulating agents (boron line 10, MSM line 15).

Protocol: In vitro differentiation (alkaline phosphatase activity (ALP) and core-binding factor alpha 1 (Cbfa-1) as a marker) assay: Human osteoblasts (1×10^5 cells/well of a 96-well plate) in a 100 μl cell culture medium were exposed to select micronutrients and plant extracts (0.1-5 μg/ml) for 48 h at 37° C., and lysed with assay buffer. Subsequently, 5 mM p-nitrophenyl phosphate (pNPP), as a phosphate substrate for alkaline phosphates, was added into all experimental wells for 1 h, followed by a stop solution. The absorbance was measured at 450 nm within 5 min. using a microplate reader.

Consider `CS(C)(=O)=O` [MSM, methylsulfonylmethane], for which the “alkaline phosphatase (ALP) activity level in human osteoblasts” value is “most stimulating agents”. For boron the value was “most stimulating agents”.
